Calls of active or inactive are those of the source.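 How the source made its calls: active means mean IC50 for reducing PEG3 promoter reporter signal at or below a set limit, with IC50 above the limit in both counter screens; inactive means the rest, including counter screen hits.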
Experiments:
Test in all cases: inhibition of PEG-3 promoter-driven reporter – cell-based, HeLa, luciferase, CREF/GAPDH counter-screen panel, dose response (AID 624167)
[1] = biological target: PEG-3 (UniProt Q6IN02); conditions: HeLa PEG-Prom luciferase reporter, overnight, CREF/GAPDH counter-screens, mean of runs
[2] = system: PEG-3; conditions: HeLa PEG-Prom luciferase reporter, overnight, CREF/GAPDH counter-screens
[3] = system: Rat fibroblasts (CREF); conditions: CREF/GAPDH counter-screens
[4] = run 1, dose range 1, individual replicate IC50 per panel
[5] = run 2, dose range 1, individual replicate IC50 per panel

Chain of PEG-3 (UniProt Q6IN02) (Q6IN02 whole entry, looked up): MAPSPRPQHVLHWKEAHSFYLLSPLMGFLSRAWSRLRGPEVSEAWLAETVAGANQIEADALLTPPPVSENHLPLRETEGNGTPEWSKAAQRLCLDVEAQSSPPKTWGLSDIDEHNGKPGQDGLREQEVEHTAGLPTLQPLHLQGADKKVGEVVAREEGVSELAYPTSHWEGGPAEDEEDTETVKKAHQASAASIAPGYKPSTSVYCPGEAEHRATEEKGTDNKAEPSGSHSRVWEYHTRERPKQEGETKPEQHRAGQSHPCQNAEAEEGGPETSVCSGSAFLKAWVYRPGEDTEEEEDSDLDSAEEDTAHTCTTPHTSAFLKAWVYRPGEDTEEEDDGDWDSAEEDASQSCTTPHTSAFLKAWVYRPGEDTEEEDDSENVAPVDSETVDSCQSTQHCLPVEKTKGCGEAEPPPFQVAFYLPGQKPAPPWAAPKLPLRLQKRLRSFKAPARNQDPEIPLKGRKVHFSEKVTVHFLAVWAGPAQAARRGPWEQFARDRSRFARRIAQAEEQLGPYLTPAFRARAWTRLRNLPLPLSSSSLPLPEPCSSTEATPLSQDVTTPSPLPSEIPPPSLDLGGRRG

Row | SMILES | IC50 [1] | IC50 [2, 4] [nM] | IC50 [2, 5] [nM] | IC50 ([3]; mean of runs) [nM] | IC50 [3, 4] [nM] | IC50 [3, 5] [nM]
1 | COc1ccc(/C=N/Nc2nncc3ccccc23)cc1 | 6520 nM | 4620 | 8430 | 835 | 957 | 712
2 | CC1CCN(c2ccc(-c3cccc(NC(=O)C(F)(F)F)c3)nn2)CC1 | 2110 nM | 1840 | 2370 | 853 | 869 | 837
3 | CCCOc1ccc2cc(-c3ccccn3)c(=O)oc2c1 | 3510 nM | 2050 | 4960 | 1330 | 1090 | 1580
4 | COC(=O)Cc1[nH]n(-c2nc3ccccc3s2)c(=O)c1C(C)=Nc1ccc(C)cc1 | 865 nM | 980 | 751 | 14800 | 25200 | 4520
5 | CC1CCN(c2ccc(-c3cccs3)nn2)CC1 | 1820 nM | 2160 | 1480 | 341 | 316 | 366
6 | O=c1c2ccccc2sc2ccc(C#CC3(O)CCCCC3)cc12 | inactive | 2930 | > 100000 | 1810 | 1360 | 2270
7 | CN1CCN(c2ccc(-c3ccc4ccccc4n3)cc2)CC1 | inactive | 7840 | > 100000 | 2360 | 2930 | 1790
8 | CCOc1ccc(C(=O)O/N=C(\N)c2ccccn2)cc1 | 3410 nM | 5040 | 1770 | 2250 | 2350 | 2150
9 | Brc1ccc(N=Nc2ccc3ccccc3n2)cc1 | 6100 nM | 5750 | 6450 | 456 | 213 | 698
10 | Nc1ccc(-c2nc3ccc(C(=O)O)cc3s2)cc1 | 363 nM | 440 | 286 | 6030 | 6250 | 5810
11 | CN(C)c1ccc(NC(=S)c2ccccn2)cc1 | 2580 nM | 2190 | 2970 | 1200 | 1250 | 1150
12 | Cc1ccc(-c2nnc(SCC(=O)Nc3ccccc3F)o2)cc1 | 1540 nM | 1450 | 1640 | 3270 | 3450 | 3080
13 | Cc1ccc2nc(-c3ccccc3)cn2c1 | 1010 nM | 1020 | 1010 | 783 | 619 | 948
14 | O=C(Cn1ncc(Cl)c(Cl)c1=O)N1CCc2ccccc21 | 8730 nM | 10100 | 7380 | 14300 | 18500 | 10000
15 | COc1ccc(S(=O)(=O)/N=C2\C=C(Nc3ccc(O)cc3)C(=O)c3ccccc32)cc1 | 2580 nM | 2500 | 2650 | 1630 | 1380 | 1880
16 | COc1ccc2c(c1)sc1nc(-c3ccccc3)cn12 | 2080 nM | 2460 | 1700 | 403 | 323 | 484
17 | Cc1ccc2oc(/N=C(\N)NC(=O)C(C)(C)C)nc2c1 | inactive | 725 | > 100000 | 2990 | 412 | 5570
18 | COc1cc(SC)ccc1C(=O)Nc1ncc(C)s1 | 3900 nM | 3020 | 4770 | 1940 | 1580 | 2300
19 | Cc1cc(N2CCN(C)CC2)ccc1NC(=O)c1c2c(nc3ccccc13)CCN(Cc1ccccc1)C2 | 8920 nM | 5600 | 12200 | 3010 | 2440 | 3590
20 | Cc1ccc2nc(-c3ccc(Br)cc3)cn2c1 | 6100 nM | 3130 | 9070 | 7810 | 2920 | 12700
21 | C=CCn1c(C)cc(C(=O)CN2C(=O)c3ccccc3S2(=O)=O)c1C | 550 nM | 795 | 306 | 2710 | 1680 | 3730
22 | Cc1cc(C)c2c(N)c(C(=O)Nc3ncc(C)s3)sc2n1 | 1670 nM | 1090 | 2260 | 3320 | 2880 | 3760
23 | COc1ccc(C(=O)Nc2nc3ccccc3s2)c(OC)c1 | 1750 nM | 2560 | 950 | 319 | 328 | 309
